Our source for the EC50, IC50 and outcome values is PubChem BioAssay AID179 (DTP/NCI, 2004).

Activity calls are given as the source filed them.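 The calls were made as follows: active = compounds giving half or more protection of infected cells from virus-caused growth loss, again on retest; inactive = the rest.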 Bounds are passed on as bounds.

A word on the EC50: it is the concentration that produces a half-maximal response. A word on the IC50: it is the concentration that inhibits the measured activity by half. Lower therefore signals greater potency in that assay.

This assay has as its system CEM cells HIV-1 protection, formazan growth assay. The assay can be described thus: NCI AIDS Antiviral Assay. As to conditions: for IC50: measured here: growth of uninfected CEM cells. An outline of the steps:
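Human CEM cells, uninfected and HIV-1-infected, received five drug concentrations, and growth was read by soluble formazan assay. Compounds giving at least 50% protection were retested; reproducible 100% protection defined confirmed active.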

As for `O=[N+]([O-])c1cccc(C2c3ccccc3Oc3ccccc32)c1`, the half-maximal effective concentration (EC50) was over 200 µM and the IC50 was 19.1 µM.

As for `CC(c1ccccc1O)C1CCCCC1N=O` (configuration not stated), the result was inactive.

Take `COc1cc(OC)c2c(=O)c3cccc(C)c3n(C)c2c1`: the EC50 was over 200 µM and the IC50 is 95.5 µM.

For `O=C(CCc1ccccc1)ON1C(=S)C(c2ccccc2)(c2ccccc2)N=C1Sc1ccccc1`, the EC50 is over 200 µM and the IC50 is 25.7 µM.

As for `CCC1(CCO)C(=O)NC(=Nc2ccccc2)NC1=O` (configuration not stated), the EC50 was over 479 µM and the concentration for half-maximal inhibition (IC50) was over 479 µM.

Consider `O=C1CC2COc3ccc(O)cc3C2=NN1c1ccccc1` (configuration not stated), for which the EC50 was over 324 µM and the IC50 came to 110 µM.

For the compound `CCOP(=O)(OCC)/C(C#N)=C/c1ccc2ccccc2c1`, the EC50 was over 22.9 µM and the IC50 is over 22.9 µM.

Regarding `C[N+](C)(N)c1nc(N)c(C#N)c(C#N)c1C#N`, the EC50 was over 200 µM and the IC50 was 33.1 µM.

For `COc1cc(NCc2ccc3nc(N)nc(N)c3c2C)cc(OC)c1OC` (tested in a mixture with another compound), the EC50 was over 4.47 µM and the IC50 is 0.00363 µM.

As for `O=C(/C=C/c1ccc2c(c1)OCO2)c1ccc(O)cc1`, the EC50 was over 200 µM and the IC50 stood at 29.5 µM.

`Clc1ccccc1-c1nc2ccc(C34CC5CC(CC(C5)C3)C4)cc2[nH]1`: the EC50 is over 200 µM and the half-maximal inhibitory concentration (IC50) was 162 µM.

`O=C1/C(=C\c2cccc(Oc3ccccc3)c2)S(=O)(=O)C(c2ccccc2)N1c1cccc([N+](=O)[O-])c1` (configuration not stated): the EC50 is over 200 µM and the concentration for half-maximal inhibition (IC50) is 9.55 µM.

On to `Cc1c(NC(=O)Nc2ccc(F)cc2)c(=O)n(-c2ccccc2)n1C`, for which the EC50 is over 200 µM and the half-maximal inhibitory concentration (IC50) was over 200 µM.

On to `Cn1ncc2c(Nc3ccc(Cl)cc3)c3ccccc3nc21`, for which the outcome was inactive.

As to `CC(=O)Nc1c(I)c(C(=O)O)c(I)c(N(C)C(C)=O)c1I`, the EC50 is over 200 µM and the half-inhibitory concentration (IC50) was over 200 µM.

As to `Cc1cc(NS(=O)(=O)c2ccc(NC(=O)c3ccccc3SC(=O)CCCC[n+]3ccccc3)cc2)nc(C)n1`, the EC50 is 26.3 µM and the half-inhibitory concentration (IC50) was found to be 107 µM.

In the case of `Cn1c([C@H](C#N)C(=O)c2cc(O)ccc2[N+](=O)[O-])nc2ccccc21`, the EC50 was over 200 µM and the IC50 is over 200 µM.

With `CC(SC(=N)N)C(=N)N` (configuration not stated), the EC50 is over 200 µM and the 50% inhibitory concentration (IC50) was over 200 µM.

Consider `COc1ccc2c(c1OC)C(=O)O[C@@H]2[C@H]1c2c(cc3c(c2OC)OCO3)CCN1C`, for which the EC50 was over 200 µM and the IC50 amounted to 24.5 µM.

On to `COCCOCN(C(=O)C1=CCC2(CC1)OCCO2)c1ccccc1I`, for which the EC50 was over 200 µM and the concentration for half-maximal inhibition (IC50) was over 200 µM.

In the case of `O=c1oc2cccc(O)c2c(O)c1Cc1ccccc1`, the EC50 was over 200 µM and the IC50 is over 200 µM.

In the case of `COc1c(C)c(O)c2c(=O)cc(-c3ccccc3)oc2c1C`, the EC50 was over 63.1 µM and the half-inhibitory concentration (IC50) was over 63.1 µM.

With `Cc1ccc(S(=O)(=O)n2cc(C=O)c(-c3cn(S(=O)(=O)c4ccc(C)cc4)cc3-c3cn(S(=O)(=O)c4ccc(C)cc4)cc3C=O)c2)cc1`, the EC50 was over 200 µM and the concentration for half-maximal inhibition (IC50) was 19.5 µM.

In the case of `CC(=O)/C(N=Nc1ccc(-n2c(C)nc3ccc(Br)cc3c2=O)cc1)=C(/C)O`, the EC50 is over 200 µM and the half-maximal inhibitory concentration (IC50) was 148 µM.

In the case of `Cn1c(=O)c2nc(-c3ccc(Cl)c(Cl)c3)c(-c3ccc(Cl)c(Cl)c3)nc2n(C)c1=O`, the EC50 is over 200 µM and the IC50 is 29.5 µM.

On to `COC(=O)CC1C2CC3C(C2=O)C13` (configuration not stated), for which the EC50 was over 200 µM and the IC50 is over 200 µM.

As to `Cc1ccc(S(=O)(=O)NCCCSCCO)cc1`, the EC50 is over 871 µM and the IC50 was found to be 5.75 µM.

Regarding `COc1ccc(C2C3=C(COC3=O)Oc3cc4c(cc32)OCO4)cc1OC` (configuration not stated), the EC50 is over 20 µM and the 50% inhibitory concentration (IC50) was determined as 0.603 µM.

For `CN1C(=O)CC(=O)N1/C(=C/c1ccccc1)c1ccccc1`, the EC50 is over 200 µM and the IC50 is 155 µM.

`O=C(O)Cn1ccc(=O)c2ccc([N+](=O)[O-])cc21`: the EC50 is over 200 µM and the 50% inhibitory concentration (IC50) was over 200 µM.

For the compound `Cn1c(=O)c2c(nc3n2CCCC(=O)N3CC(O)CCl)n(C)c1=O` (configuration not stated), the EC50 was over 200 µM and the IC50 was 85.1 µM.

As for `CCc1cccc(C(C)(C)C)c1NC(=S)N/C=C(/C#N)C(N)=O`, the EC50 was over 200 µM and the half-inhibitory concentration (IC50) is 151 µM.

Turning to `O=C(O)c1nc2ccc(C(F)(F)F)cc2nc1NCc1ccc(F)cc1`, the EC50 is over 200 µM and the half-inhibitory concentration (IC50) is 15.8 µM.

Consider `O=C(CNc1ccc([N+](=O)[O-])cc1)Nn1c(-c2ccccc2)nc2ccccc2c1=O`, for which the EC50 was over 200 µM and the IC50 worked out at 4.17 µM.

Regarding `C=CC1(C)OC2(CCN(C(=O)OCC)CC2)OC1C` (configuration not stated), the EC50 is over 200 µM and the IC50 was 123 µM.

As to `NC(=O)NNC(=O)NC12CC3CC(CC(C3)C1)C2`, the result was inactive.

With `CN1C(=O)c2ccccc2Sc2ccccc21`, the EC50 is 6.46 µM and the 50% inhibitory concentration (IC50) is 115 µM.

On to `OCC(O)C(O)C(O)C(O)c1nc2ccccc2s1` (configuration not stated), for which the EC50 is over 126 µM and the concentration for half-maximal inhibition (IC50) is 97.7 µM.

Consider `NC1=CN(CCCO)C2=N/C(=C\c3ccco3)C(=O)N12`, for which the outcome was inactive.

Regarding `O=C(/C=C/C(=O)N1CCCC1)N1CCCC1`, the EC50 is over 200 µM and the half-maximal inhibitory concentration (IC50) is over 200 µM.

As for `C#CCCCCCCCCC/C=C1\C[C@H](O)COC1=O`, the EC50 was over 245 µM and the half-inhibitory concentration (IC50) was determined as 46.8 µM.

Regarding `CCN(CC)CCC1CCCCN1CC(=O)N1c2ccccc2NC(=O)CC1C` (configuration not stated), the EC50 was over 200 µM and the half-maximal inhibitory concentration (IC50) is over 200 µM.

Take `O=C1CCCC[C@H]1C(O)CC1CC(=O)N(c2ccccc2)C(=O)C1` (some centres not stated): the EC50 was over 200 µM and the IC50 was over 200 µM.

As for `C=C1CN=C(Nc2ccc(F)cc2F)S1`, the EC50 is over 200 µM and the concentration for half-maximal inhibition (IC50) is over 100 µM.

Take `Cc1cc2cc3ccc4cccc5ccc(c2oc1=O)c3c45`: the result was inactive.

As to `CCOC(=O)C(C)(c1cn(C)c2ccccc12)c1cn(C)c2ccccc12`, the outcome was inactive.

As to `Cc1nc(N)sc1C(=O)/C=C/c1ccc([N+](=O)[O-])cc1`, the EC50 is over 871 µM and the concentration for half-maximal inhibition (IC50) came to 57.5 µM.

`COC1/C=C/OC2(C)Oc3c(C)c(O)c4c(O)c(c(C=Nc5cccc(C)c5)c(O)c4c3C2=O)NC(=O)C(C)=C/C=C/C(C)C(O)C(C)C(O)C(C)C(OC(C)=O)C1C` (configuration not stated): the EC50 was over 174 µM and the IC50 was found to be 28.8 µM.

On to `Cc1cc(NCCCCCCCNc2cc(C)nc3cc(N)ccc23)c2ccc(N)cc2n1`, for which the EC50 is 5.89 µM and the IC50 was 8.71 µM.

As to `O=C1CSC(=Nc2ccc(F)cc2F)N1Cc1cccs1`, the EC50 is over 107 µM and the half-maximal inhibitory concentration (IC50) was determined as 40.7 µM.

For the compound `Cc1cccc(NC2=NCCO2)c1Cl`, the EC50 is over 200 µM and the IC50 amounted to 105 µM.

In the case of `COC(=O)C1(Cc2ccccc2)Cc2cc3c(cc2C1O)CCC3` (configuration not stated), the EC50 is over 200 µM and the half-inhibitory concentration (IC50) was 24 µM.

As for `O=C(OC1CCCC1)C1(O)CCCCC1`, the EC50 is over 200 µM and the IC50 is over 200 µM.

With `CCc1cc2c(c3c1CCCC3=O)CC1(Cc3ccc(C(=O)OC)cc3C1)C2` (configuration not stated), the EC50 was over 200 µM and the IC50 worked out at 36.3 µM.
